# Reference: ChEMBL document CHEMBL4270580, “Syntheses of C-ring modified dehydroabietylamides and their cytotoxic activity” (Eur J Med Chem, 2018)
# Legend:
# SW-1736 = assay: Cytotoxicity against human SW1736 cells after 96 hrs by sulforhodamine-B assay; type: functional, cell-based
# A2780 = assay: Cytotoxicity against human A2780 cells after 96 hrs by sulforhodamine-B assay; type: functional, cell-based
# MCF7 = assay: Cytotoxicity against human MCF7 cells after 96 hrs by sulforhodamine-B assay; type: functional, cell-based
# HT-29 = assay: Cytotoxicity against human HT-29 cells after 96 hrs by sulforhodamine-B assay; type: functional, cell-based
# FaDu = assay: Cytotoxicity against human FADU cells after 96 hrs by sulforhodamine-B assay; type: functional, cell-based
# NIH3T3 = assay: Cytotoxicity against mouse NIH/3T3 cells after 96 hrs by sulforhodamine-B assay; type: cell-based
# [1] = Selectivity index, ratio of EC50 for mouse NIH/3T3 cells to EC50 for human MCF7 cells; type: toxicity; conditions: NIH/3T3 cells and MCF7 cells, read-out: Ratio EC50
# [2] = Homo sapiens, SW-1736, 96 h, read-out: EC50
# [3] = Homo sapiens, A2780, 96 h, read-out: EC50
# [4] = Homo sapiens, MCF7, 96 h, read-out: EC50
# [5] = Homo sapiens, HT-29, 96 h, read-out: EC50
# [6] = Homo sapiens, FaDu, 96 h, read-out: EC50
# [7] = Mus musculus, NIH3T3, 96 h, read-out: EC50
SMILES,EC50 (SW-1736; sw-1736),EC50 (A2780; a2780),EC50 (MCF7; mcf7),EC50 (HT-29; ht-29),EC50 (FaDu; fadu),EC50 (NIH3T3; nih3t3),EC50 (SW-1736; [2]) [µM],EC50 (A2780; [3]) [µM],EC50 (MCF7; [4]) [µM],EC50 (HT-29; [5]) [µM],EC50 (FaDu; [6]) [µM],EC50 (NIH3T3; [7]) [µM],selectivity ratio [1]
COc1ccc(C(=O)NC[C@]2(C)CCC[C@]3(C)c4cc(OC(C)=O)c(C(C)C)cc4CC[C@@H]23)cc1,Nd(Insoluble),Nd(Insoluble),Nd(Insoluble),Nd(Insoluble),Nd(Insoluble),Nd(Insoluble),–,–,–,–,–,–,–
CC(=O)Oc1cc2c(cc1C(C)C)CC[C@H]1[C@](C)(CNC(=O)CCCC[C@H]3SCC4NC(=O)NC43)CCC[C@]21C (some centres undefined),–,–,–,–,–,–,> 30,> 30,> 30,> 30,> 30,> 30,–
CC(C)c1ccc2c(c1)CC[C@H]1[C@](C)(CNC(=O)c3ccncc3)CCC[C@]21C,–,–,–,–,–,–,14.2,9.8,7.9,10.7,14.4,16.9,–
CC(C)c1ccc2c(c1)CC[C@H]1[C@](C)(CNC(=O)c3ccc(Cl)cc3)CCC[C@]21C,–,–,–,–,–,–,> 30,> 30,> 30,> 30,> 30,> 30,–
CC(C)c1cc2c(cc1O)[C@@]1(C)CCC[C@@](C)(CNC(=O)c3ccncc3)[C@@H]1CC2,–,–,–,–,–,–,27.3,12.9,4.3,19,18.8,24.2,6.2
CC(=O)Oc1cc2c(cc1C(C)C)CC[C@H]1[C@](C)(CNC(=O)c3ccc(Cl)cc3)CCC[C@]21C,–,–,–,–,–,–,15.3,5,6.1,11.7,14.4,> 30,–
CC(C)c1cc2c(cc1O)[C@@]1(C)CCC[C@@](C)(CNC(=O)c3ccccc3)[C@@H]1CC2,–,–,–,–,–,–,11.5,12.5,4.8,16.2,14.8,18.1,–
COc1ccc(C(=O)NC[C@]2(C)CCC[C@]3(C)c4cc(O)c(C(C)C)cc4CC[C@@H]23)cc1,–,–,–,–,–,–,16.1,13.2,11.7,13.5,20,23.2,–
CC(=O)Oc1cc2c(cc1C(C)C)CC[C@H]1[C@](C)(CN)CCC[C@]21C,–,–,–,–,–,–,18.3,20,10.7,10.1,13.1,> 30,–
CC(C)c1cc2c(cc1OC(=O)c1ccccc1)[C@@]1(C)CCC[C@@](C)(CNC(=O)c3ccccc3)[C@@H]1CC2,–,–,–,–,–,–,> 30,> 30,> 30,> 30,> 30,> 30,–
CC(C)c1ccc2c(c1)CC[C@H]1[C@](C)(CN)CCC[C@]21C,–,–,–,–,–,–,4.2,3.8,3,2.1,3.9,2.4,0.8
CC(=O)Oc1cc2c(cc1C(C)C)CC[C@H]1[C@](C)(CNC(=O)c3ccc(C)cc3)CCC[C@]21C,–,–,–,–,–,–,10.7,19.4,11.5,26.7,12.8,> 30,–
CC(C)c1cc2c(cc1O)[C@@]1(C)CCC[C@@](C)(CNC(=O)c3ccc(Cl)cc3)[C@@H]1CC2,–,–,–,–,–,–,10.2,6.6,5,10.5,21.9,16,–
CC(C)c1cc2c(cc1O)[C@@]1(C)CCC[C@@](C)(CNC(=O)c3ccc(O)cc3)[C@@H]1CC2,–,–,–,–,–,–,> 30,> 30,> 30,> 30,> 30,> 30,–
CC(C)c1cc2c(cc1O)[C@@]1(C)CCC[C@@](C)(CN)[C@@H]1CC2,–,–,–,–,–,–,13.6,17.3,8.9,9.5,11.5,22,–
Cc1ccc(C(=O)NC[C@]2(C)CCC[C@]3(C)c4cc(O)c(C(C)C)cc4CC[C@@H]23)cc1,–,–,–,–,–,–,7,10,8.5,17.2,12.2,16.8,–
Cc1ccc(C(=O)NC[C@]2(C)CCC[C@]3(C)c4ccc(C(C)C)cc4CC[C@@H]23)cc1,–,–,–,–,–,–,14.2,12.5,10.4,22.8,18.9,13.5,–
COc1ccc(C(=O)NC[C@]2(C)CCC[C@]3(C)c4ccc(C(C)C)cc4CC[C@@H]23)cc1,–,–,–,–,–,–,11.2,9.1,4.5,10.4,17.3,22.8,8.8
CC(=O)Oc1cc2c(cc1C(C)C)CC[C@H]1[C@](C)(CNC(=O)c3ccncc3)CCC[C@]21C,–,–,–,–,–,–,12.8,14.4,5.7,15.3,12.4,29.5,–
CC(C)c1cc2c(cc1O)[C@@]1(C)CCC[C@@](C)(CNC(=O)CCCC[C@H]3SCC4NC(=O)NC43)[C@@H]1CC2 (some centres undefined),–,–,–,–,–,–,> 30,> 30,> 30,> 30,> 30,> 30,–
CC(C)c1ccc2c(c1)CC[C@H]1[C@](C)(CNC(=O)c3ccccc3)CCC[C@]21C,–,–,–,–,–,–,> 30,> 30,> 30,> 30,> 30,> 30,–
CC(=O)Oc1ccc(C(=O)NC[C@]2(C)CCC[C@]3(C)c4cc(OC(C)=O)c(C(C)C)cc4CC[C@@H]23)cc1,–,–,–,–,–,–,17.2,17.9,10.5,11.2,20.2,21.4,–
CC(C)c1ccc2c(c1)CC[C@H]1[C@](C)(CNC(=O)CCCC[C@H]3SCC4NC(=O)NC43)CCC[C@]21C (some centres undefined),–,–,–,–,–,–,> 30,18.6,11.6,15.5,24.5,15.7,–
C=C(C)[C@@H]1CC[C@]2(C(=O)O)CC[C@]3(C)[C@H](CC[C@@H]4[C@@]5(C)CC[C@H](O)C(C)(C)[C@@H]5CC[C@]43C)[C@@H]12 [BETULINIC ACID],–,–,–,–,–,–,14.8,9.7,10.6,16,10.7,12.9,–
CC(=O)Oc1cc2c(cc1C(C)C)CC[C@H]1[C@](C)(CNC(=O)c3ccccc3)CCC[C@]21C,–,–,–,–,–,–,13.5,8.1,4.5,9,13.4,17.3,–
CC(C)c1ccc2c(c1)CC[C@H]1[C@](C)(CNC(=O)c3ccc(O)cc3)CCC[C@]21C,–,–,–,–,–,–,13,8.7,8,8.5,14.1,6.9,–
